Common to all, as to format: cell-based
One assay concerns P. mirabilis 190. Description: In vitro MIC, Broth Dilution Method, P. mirabilis 190. As to conditions: Proteus mirabilis. For orientation: Broth dilution looks for growth in wells or tubes with falling amounts of substance.
In the next assay the test system is E. cloacae 7099. Nature of the assay: In vitro MIC, Broth Dilution Method, E. cloacae 7099. To be noted: Enterobacter cloacae.
In the next assay the test system is P. aeruginosa Stone 130. Nature of the assay: In vitro MIC, Broth Dilution Method, P. aeruginosa Stone 130. To be noted: Pseudomonas aeruginosa, STONE130. The source says: (§1) The in vitro activity of the compounds of the present invention as measured by the Minimum Inhibitory Concentration in micrograms/ml utilizing the Agar Well Diffusion Method or Broth Dilution Method against a variety of Gram-positive and Gram-negative organisms is as follows:
(§2) In vitro MIC (μg/ml) Broth Dilution Method

A further assay deals with S. marcescens SM. Description: In vitro MIC, Broth Dilution Method, S. marcescens SM. To be noted: Serratia marcescens.
Description: as §1, §2

In a further assay the test system is P. vulgaris ATCC 6380. Nature of the assay: In vitro MIC, Broth Dilution Method, P. vulgaris ATCC 6380. As to conditions: Proteus vulgaris.
Description: as §1, §2

A further assay relates to P. aeruginosa 503-56. Nature of the assay: In vitro MIC, Broth Dilution Method, P. aeruginosa 503-56. As to conditions: Pseudomonas aeruginosa, 50356.
Description: as §1, §2

A further assay relates to E. cloacae 9570A. Description: In vitro MIC, Broth Dilution Method, E. cloacae 9570A. As to conditions: Enterobacter cloacae.
Description: as §1, §2

The test system of the next assay is S. aureus Smith. Nature of the assay: In vitro MIC, Broth Dilution Method, S. aureus Smith. To be noted: Staphylococcus aureus.
For another assay, the system named is E. cloacae 948-1. Nature of the assay: In vitro MIC, Broth Dilution Method, E. cloacae 948-1. To be noted: Enterobacter cloacae, 9481.
Description: as §1, §2

In the next assay the test system is E. cloacae 214. Nature of the assay: In vitro MIC, Broth Dilution Method, E. cloacae 214. To be noted: Enterobacter cloacae.
Description: as §1, §2

Another assay relates to E. cloacae 2367-2. Nature of the assay: In vitro MIC, Broth Dilution Method, E. cloacae 2367-2. As to conditions: Enterobacter cloacae, 23672.
Description: as §1, §2

The subject of another assay is S. aureus 95. Description: In vitro MIC, Broth Dilution Method, S. aureus 95. To be noted: Staphylococcus aureus.
Description: as §1, §2

Another assay deals with K. pneumoniae A. Nature of the assay: In vitro MIC, Broth Dilution Method, K. pneumoniae A. As to conditions: Klebsiella pneumoniae.
For another assay, the system named is E. coli 48. Nature of the assay: In vitro MIC, Broth Dilution Method, E. coli 48. As to conditions: Escherichia coli.
The mark [1] stands for this setting: ATCC6380, P. vulgaris ATCC 6380, Broth Dilution Method, read-out: In vitro MIC.

Consider nine molecules from patent US5147871A, “Anti-bacterial cephalosporin compounds” (Hoffmann La-Roche, Inc., priority 1991, dated 1992).

Structures can show the parent of a compound that is named as a salt. Where two headings read alike, the source gives them in different places.

For orientation: MIC means the lowest concentration found to suppress growth.

On to `CCn1cc(C(=O)OCC2=C(C(=O)O)N3C(=O)[C@@H](NC(=O)/C(=N\OC)c4csc(N)n4)[C@H]3SC2)c(=O)c2cc3c(cc21)OCO3` [Compound D, [6R-(6alpha,7beta)(Z)]-7-[[(2-Amino-4-thiazolyl) (methoxyimino)acetyl]amino]-3-[[[(5-ethyl-5,8-dihydro-8-oxo-1,3-dioxolo[4,5-g]quinolin-7-yl)carbonyl]oxy]methyl]-8-oxo-5-thia-1-azabicyclo [4.2.0]oct-2-ene-2-carboxylic acid sodium salt], for which the minimal inhibitory concentration (MIC) against P. mirabilis 190 was 0.008 µg/mL; in the assay on E. cloacae 7099 it was 0.5 µg/mL; against P. aeruginosa Stone 130 it was 16 µg/mL; in the assay with S. marcescens SM, 0.5 µg/mL; with P. vulgaris ATCC 6380 (ATCC6380, read-out: In vitro MIC), 0.063 µg/mL; with P. aeruginosa 503-56 it was 32 µg/mL. Also, the minimum inhibitory concentration (MIC) in the assay on E. cloacae 9570A was 1 µg/mL; against S. aureus Smith, 2 µg/mL; in the assay with E. cloacae 948-1 it was 1 µg/mL; against E. cloacae 214 it was 0.5 µg/mL; in the assay with E. cloacae 2367-2, 2 µg/mL; in the assay with S. aureus 95 it was 4 µg/mL.
As to `CCn1cc(C(=O)OCC2=C(C(=O)O)N3C(=O)[C@@H](NC(=O)COc4ccccc4)[C@H]3SC2)c(=O)c2cc(F)c(N3CCN(C=O)CC3)cc21` [Compound E, [6R-(6alpha,7beta)]-3-[[[[1-Ethyl-6-fluoro-1,4-dihydro-7-(4-formyl-1-piperazinyl)-4-oxo-quinolin-3-yl]-carbonyl]oxy]methyl-8-oxo-7-[(phenoxyacetyl)amino]-5-thia-1-azabicyclo[4.2.0]oct-2-ene-2-carboxylic acid sodium salt], the MIC in the assay on P. mirabilis 190 stood at 0.5 µg/mL; against E. cloacae 7099, 2 µg/mL; in the assay on P. aeruginosa Stone 130, 16 µg/mL; against K. pneumoniae A, 2 µg/mL; in the assay with S. marcescens SM, 4 µg/mL; in the assay on P. vulgaris ATCC 6380 (setting [1]) it was 4 µg/mL. Moreover, the minimum inhibitory concentration (MIC) stood at 32 µg/mL in the assay with P. aeruginosa 503-56; 8 µg/mL in the assay with E. cloacae 9570A; 0.063 µg/mL in the assay on S. aureus Smith; 8 µg/mL in the assay with E. cloacae 948-1; 8 µg/mL in the assay with E. cloacae 214; 4 µg/mL against E. cloacae 2367-2. Further, in the assay on S. aureus 95, the lowest concentration to inhibit growth (MIC) was 2 µg/mL.
Regarding `CCn1cc(C(=O)OCC2=C(C(=O)O)N3C(=O)[C@@H](NC(=O)COc4ccccc4)[C@H]3SC2)c(=O)c2ccc(C)nc21` [Compound A, [6R-(6alpha,7beta)]-3-[[[(1-Ethyl-1,4-dihydro-7-methyl-4-oxo-1,8-naphthydrin-3-yl)carbonyl]oxy]methyl]-8-oxo-7-[(phenoxyacetyl)amino]-5-thia-1-azabicyclo[4.2.0]oct-2-ene-2-carboxylic acid hydrate], the MIC was found to be 8 µg/mL against P. mirabilis 190; 16 µg/mL in the assay on E. cloacae 7099; 32 µg/mL against E. coli 48; 128 µg/mL in the assay on P. aeruginosa Stone 130; 16 µg/mL against K. pneumoniae A; 16 µg/mL in the assay on S. marcescens SM. Further, the minimal inhibitory concentration (MIC) was 8 µg/mL in the assay on P. vulgaris ATCC 6380 (setting [1]); 128 µg/mL with P. aeruginosa 503-56; 64 µg/mL against E. cloacae 9570A; 0.25 µg/mL with S. aureus Smith; 128 µg/mL in the assay with E. cloacae 214.
As for `CCn1cc(C(=O)OCC2=C(C(=O)O)N3C(=O)[C@@H](NC(=O)COc4ccccc4)[C@H]3SC2)c(=O)c2cc(F)c(N3CCCC3)cc21` [Compound H, [6R-(6alpha,7beta)]-3-[[[[1-Ethyl-6-fluoro-1,4-dihydro-7-(1-pyrrolidinyl)-4-oxo-quinolin-3-yl]carbonyl]oxy]methyl]-8-oxo-7-[(phenoxyacetyl)amino]-5-thia-1-azabicyclo[4.2.0]oct-2-ene-2-carboxylic acid sodium salt], the MIC turned out to be 0.5 µg/mL in the assay with P. mirabilis 190; 2 µg/mL against E. cloacae 7099; 32 µg/mL in the assay on E. coli 48; 32 µg/mL in the assay on P. aeruginosa Stone 130; 32 µg/mL with K. pneumoniae A; 32 µg/mL with S. marcescens SM. Besides, the MIC in the assay on P. vulgaris ATCC 6380 (setting [1]) was 32 µg/mL; against P. aeruginosa 503-56, 64 µg/mL; in the assay with E. cloacae 9570A, 32 µg/mL; against S. aureus Smith it was 0.25 µg/mL; in the assay with E. cloacae 948-1 it was 32 µg/mL; against E. cloacae 214, 32 µg/mL. Also, the MIC with E. cloacae 2367-2 amounted to 32 µg/mL; against S. aureus 95 it was 0.5 µg/mL.
On to `CCn1cc(C(=O)OCC2=C(C(=O)O)N3C(=O)[C@@H](NC(=O)/C(=N\OC)c4csc(N)n4)[C@H]3SC2)c(=O)c2ccc(C)nc21` [Compound C, [6R-(6alpha,7beta)(Z)]-7-[[(2-Amino-4-thiazolyl) (methoxyimino)acetyl]amino]-3-[[[(1-ethyl-1,4-dihydro-7-methyl-4-oxo-1,8-naphthyridin-3-yl)carbonyl]oxy]methyl]-8-oxo-5-thia-1-azabicyclo [4.2.0]oct-2-ene-2-carboxylic acid sodium salt], for which the minimum inhibitory concentration (MIC) in the assay with P. mirabilis 190 is 0.16 µg/mL; in the assay on E. cloacae 7099, 8 µg/mL; with E. coli 48, 0.5 µg/mL; in the assay on P. aeruginosa Stone 130, 128 µg/mL; in the assay with S. marcescens SM, 1 µg/mL; in the assay on P. vulgaris ATCC 6380 (setting [1]), 0.25 µg/mL. For the same molecule, the minimum inhibitory concentration (MIC) is 128 µg/mL against P. aeruginosa 503-56; 2 µg/mL with E. cloacae 9570A; 2 µg/mL against S. aureus Smith; 8 µg/mL against E. cloacae 948-1; 8 µg/mL against E. cloacae 214; 16 µg/mL with E. cloacae 2367-2. The MIC in the assay with S. aureus 95 was 8 µg/mL.
For the molecule `CCn1cc(C(=O)OCC2=C(C(=O)O)N3C(=O)[C@@H](NC(=O)COc4ccccc4)[C@H]3SC2)c(=O)c2cc3c(cc21)OCO3` [Compound B, [6R-(6alpha,7beta)]-3-[[[(5-Ethyl-5,8-dihydro-8-oxo-1,3-dioxolo[4,5-g]quinolin-7-yl)carbonyl]oxy]methyl]-8-oxo-7-[(phenoxyacetyl)amino]-5-thia-1-azabicyclo[4.2.0]oct-2-ene-2-carboxylic acid monosodium salt], the minimal inhibitory concentration (MIC) in the assay on E. coli 48 is 2 µg/mL; with P. aeruginosa Stone 130 it was 32 µg/mL; in the assay with K. pneumoniae A, 1 µg/mL; against S. marcescens SM it was 1 µg/mL; with P. vulgaris ATCC 6380 (setting [1]), 0.5 µg/mL; in the assay with P. aeruginosa 503-56, 64 µg/mL. Besides, the MIC against E. cloacae 9570A amounted to 2 µg/mL; in the assay on S. aureus Smith, 0.25 µg/mL; in the assay on E. cloacae 948-1 it was 2 µg/mL; against E. cloacae 214, 2 µg/mL; against E. cloacae 2367-2, 1 µg/mL; in the assay with S. aureus 95, 4 µg/mL.
As for `CCn1cc(C(=O)OCC2=C(C(=O)O)N3C(=O)[C@@H](NC(=O)Cc4cccs4)[C@H]3SC2)c(=O)c2cc(F)c(N3CCN(C=O)CC3)cc21` [Compound G, [6R-(6alpha,7beta)]-3-[[[[1-Ethyl-6-fluoro-1,4-dihydro-7-(4-formyl-1-piperazinyl)-4-oxoquinolin-3-yl]-carbonyl]oxy]methyl]-7-[(2-thienylacetyl)amino]-5-thia-1-azabicyclo[4.2.0]oct-2-ene-2-carboxylic acid sodium salt], the minimum inhibitory concentration (MIC) against P. mirabilis 190 stood at 4 µg/mL; against E. cloacae 7099, 2 µg/mL; with E. coli 48, 8 µg/mL; against P. aeruginosa Stone 130, 32 µg/mL; against K. pneumoniae A, 4 µg/mL; in the assay with S. marcescens SM, 4 µg/mL. The MIC was found to be 4 µg/mL with P. vulgaris ATCC 6380 (setting [1]); 64 µg/mL against P. aeruginosa 503-56; 8 µg/mL in the assay with E. cloacae 9570A; 0.25 µg/mL against S. aureus Smith; 8 µg/mL with E. cloacae 948-1; 64 µg/mL in the assay with E. cloacae 214. The minimal inhibitory concentration (MIC) with E. cloacae 2367-2 was found to be 32 µg/mL; in the assay with S. aureus 95, 4 µg/mL.
For `CCn1cc(C(=O)OCC2=C(C(=O)O)N3C(=O)[C@@H](NC(=O)/C(=N\OC)c4csc(N)n4)[C@H]3SC2)c(=O)c2cc(F)c(N3CCCC3)cc21` [Compound I, [6R-(6alpha,7beta)(Z)]-7-[[(2-Amino-4-thiazolyl) (methoxyimino)acetyl]amino]-3-[[[[1-ethyl-6-fluoro-1,4-dihydro-7-(1-pyrrolidinyl)-4-oxoquinolin-3-yl]-carbonyl]oxy]methyl]-8-oxo-5-thia-1-azabicyclo[4.2.0]oct-2-ene-2-carboxylic acid sodium salt], the MIC was 0.031 µg/mL in the assay with P. mirabilis 190; 2 µg/mL with E. cloacae 7099; 0.5 µg/mL in the assay on E. coli 48; 8 µg/mL in the assay on P. aeruginosa Stone 130; 0.5 µg/mL against K. pneumoniae A; 1 µg/mL against S. marcescens SM. The MIC worked out at 0.5 µg/mL in the assay with P. vulgaris ATCC 6380 (setting [1]); 32 µg/mL in the assay with P. aeruginosa 503-56; 2 µg/mL in the assay on E. cloacae 9570A; 0.25 µg/mL in the assay on S. aureus Smith; 4 µg/mL in the assay on E. cloacae 948-1; 4 µg/mL against E. cloacae 214. The MIC against E. cloacae 2367-2 came to 4 µg/mL; with S. aureus 95, 0.5 µg/mL.
Consider `CCn1cc(C(=O)OCC2=C(C(=O)O)N3C(=O)[C@@H](NC(=O)Cc4cccs4)[C@H]3SC2)c(=O)c2cc3c(cc21)OCO3` [Compound F, [6R-(6alpha,7beta)]-3-[[[(5-Ethyl-5,8-dihydro-8-oxo-1,3-dioxolo[4,5-g]quinolin-7-yl)carbonyl]oxy]methyl]-8-oxo-7-[(2-thienylacetyl)amino]-5-thia-1-azabicyclo-[4.2.0]oct-2-ene-2-carboxylic acid sodium salt], for which the minimum inhibitory concentration (MIC) in the assay on P. mirabilis 190 amounted to 0.5 µg/mL; in the assay on E. coli 48, 2 µg/mL; with P. aeruginosa Stone 130 it was 32 µg/mL; in the assay on K. pneumoniae A, 1 µg/mL; against S. marcescens SM, 1 µg/mL; in the assay with P. vulgaris ATCC 6380 (setting [1]), 0.5 µg/mL. Besides, the MIC amounted to 64 µg/mL in the assay with P. aeruginosa 503-56; 2 µg/mL in the assay on E. cloacae 9570A; 1 µg/mL against E. cloacae 948-1; 2 µg/mL with E. cloacae 214; 1 µg/mL in the assay with E. cloacae 2367-2; 4 µg/mL with S. aureus 95.
